Results published in PubChem BioAssay AID651853 (NMMLSC, 2012).

test system: AM2.2 cells FAP-GPR32, fluorogen binding, flow cytometry MCF; test: interference with FAP fluorogen signal – human GPR32, AM2.2 cells, powder set 3, counter-screen for beta2AR agonist internalization project, dose response (AID 651853)

Point of comparison: `Cc1ncc(CN2CCCC(C(=O)Nc3ccc(-c4cccc(F)c4)cc3)C2)s1` (stereo not given), EC50 870 nM. Against it:
- CN(Cc1ccccc1)S(=O)(=O)c1ccc(NS(=O)(=O)Cc2ccccc2)cc1 — 17-fold lower, 50 nM
- Cn1c(N2CCN(c3ccccn3)CC2)nc2c1c(=O)n(Cc1ccc(Cl)cc1)c(=O)n2C — 87-fold lower, 10 nM
- CC(Oc1ccc(Cl)cc1Cl)c1nc(-c2ccc(NC(=O)c3ccccn3)cc2)no1 (stereo not given) — 7.2-fold lower, 120 nM
- Clc1cccc(-c2nnc(SCc3nc4ccccc4[nH]3)n2Cc2ccco2)c1 — 8.3-fold higher, 7180 nM
- CC(=O)Nc1ccc(S(=O)(=O)N2CCC(Oc3ccc(-n4cnnn4)cc3)CC2)cc1 — 22-fold lower, 40 nM
- CC1(C)Cc2c(c(N3CCCC3)nc3sc4c(N5CCN(CCO)CC5)ncnc4c23)CO1 — 2.9-fold higher, 2560 nM
- Cc1ccccc1N1CCN(c2ncnc3c2cnn3Cc2ccc(Cl)cc2)CC1 — 2.5-fold higher, 2170 nM
- CC(C)Cc1nc2sc3c(NCc4ccco4)ncnc3c2c2c1COC(C)(C)C2 — 44-fold lower, 20 nM
- CSc1nc(SCCO)c2sc3nc(-c4ccco4)c4c(c3c2n1)CC(C)(C)OC4 — 2.1-fold higher, 1810 nM
- O=C(c1cc2c(=O)n3ccccc3nc2s1)N1CCN(Cc2ccc3c(c2)OCO3)CC1 — 7.9-fold lower, 110 nM
- CC(Sc1nc(-c2ccccc2)cc(C(F)(F)F)n1)C(=O)N1CCCCC1 (stereo not given) — 87-fold lower, 10 nM
- Cc1ccc(NC(=O)C(c2ccc(Cl)cc2)N2CCOCC2)cc1 (stereo not given) — within 1.5-fold, 920 nM
- Cc1ccc(Cn2ccc(NC(=O)c3cc4nc(-c5ccco5)cc(C(F)(F)F)n4n3)n2)cc1 — 87-fold lower, 10 nM
- C=CCn1c(CCNC(=O)c2cccs2)nnc1SCC(=O)c1ccc(Br)cc1 — 87-fold lower, 10 nM
- CC(Sc1nc(-c2ccccc2)cc(C(F)(F)F)n1)C(=O)N1CCOCC1 (stereo not given) — 44-fold lower, 20 nM
- COc1ccc(OC)c(CCNC(=O)C2CCN(c3nnc(-n4cccc4)s3)CC2)c1 — 1.6-fold higher, 1420 nM
- Cc1ccc(OCc2cc(C(=O)N(C)Cc3cnn(-c4ccccc4C)c3)no2)cn1 — 14-fold lower, 60 nM
- Clc1ccc(OCc2nnc(SCc3nc4ccccc4[nH]3)n2Cc2ccco2)cc1 — 87-fold lower, 10 nM
- CC(Oc1ccc(Cl)cc1Cl)c1nc(-c2ccc(NC(=O)c3ccco3)cc2)no1 (stereo not given) — 3.8-fold lower, 230 nM
